Assay results: paper PMC9516332 (Frontiers in Oncology, 2022)

Legend:
Assay in all cases: Kinase panel profiling at 1 µmol/L (MSA or IMAP), percentage inhibition
Type in all cases: biochemical
[1] = target: T1, panel of 255 wild-type kinases (Homo sapiens, UniProt O94806); details: kinase PKD3; 1 µmol/L single concentration; read-out: %-inhibition at 1 µmol/L, PKD3
T1 sequence (O94806 1-890): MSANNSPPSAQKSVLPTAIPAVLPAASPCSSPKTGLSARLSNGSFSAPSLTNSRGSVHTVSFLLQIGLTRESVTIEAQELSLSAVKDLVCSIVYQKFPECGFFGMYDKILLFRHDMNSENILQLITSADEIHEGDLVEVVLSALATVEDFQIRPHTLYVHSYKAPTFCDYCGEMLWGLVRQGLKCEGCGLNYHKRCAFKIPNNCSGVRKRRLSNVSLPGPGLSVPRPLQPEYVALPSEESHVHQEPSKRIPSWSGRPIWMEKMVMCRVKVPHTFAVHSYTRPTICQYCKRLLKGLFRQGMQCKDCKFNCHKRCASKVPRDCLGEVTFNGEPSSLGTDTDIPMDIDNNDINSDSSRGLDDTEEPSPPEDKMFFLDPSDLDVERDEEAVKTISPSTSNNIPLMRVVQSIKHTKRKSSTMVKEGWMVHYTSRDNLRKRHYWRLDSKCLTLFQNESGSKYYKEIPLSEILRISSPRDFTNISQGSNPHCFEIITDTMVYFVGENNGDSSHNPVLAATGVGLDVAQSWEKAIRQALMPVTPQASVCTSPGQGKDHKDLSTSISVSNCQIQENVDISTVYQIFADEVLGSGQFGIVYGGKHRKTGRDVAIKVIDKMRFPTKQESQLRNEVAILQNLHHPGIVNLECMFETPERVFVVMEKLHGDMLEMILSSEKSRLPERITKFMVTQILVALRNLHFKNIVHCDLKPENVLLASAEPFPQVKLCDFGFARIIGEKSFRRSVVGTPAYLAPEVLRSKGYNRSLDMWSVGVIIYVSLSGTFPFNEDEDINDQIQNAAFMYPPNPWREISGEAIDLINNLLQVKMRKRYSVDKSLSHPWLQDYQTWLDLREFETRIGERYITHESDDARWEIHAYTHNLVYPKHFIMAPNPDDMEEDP

[2] = target: panel of 255 wild-type kinases (Homo sapiens, UniProt P00519); details: ABL kinase assay; 1 µmol/L single concentration; read-out: %-inhibition ABL
[3] = target: panel of 255 wild-type kinases (Homo sapiens, UniProt P07333); details: kinase FMS; 1 µmol/L single concentration; read-out: %-inhibition at 1 µmol/L, FMS
[4] = target: panel of 255 wild-type kinases (Homo sapiens, UniProt P21802); details: kinase FGFR2; 1 µmol/L single concentration; read-out: %-inhibition at 1 µmol/L, FGFR2
[5] = target: panel of 255 wild-type kinases (Homo sapiens, UniProt P49674); details: kinase CK1ε; 1 µmol/L single concentration; read-out: %-inhibition at 1 µmol/L, CK1ε
[6] = target: panel of 255 wild-type kinases (Homo sapiens, UniProt P57059); details: kinase SIK; 1 µmol/L single concentration; read-out: %-inhibition at 1 µmol/L, SIK
[7] = target: panel of 255 wild-type kinases (Homo sapiens, UniProt P78362); details: kinase SRPK2; 1 µmol/L single concentration; read-out: %-inhibition at 1 µmol/L, SRPK2
[8] = target: T2, panel of 255 wild-type kinases (Homo sapiens, UniProt Q08881); details: kinase ITK; 1 µmol/L single concentration; read-out: %-inhibition at 1 µmol/L, ITK
T2 sequence (Q08881 1-620): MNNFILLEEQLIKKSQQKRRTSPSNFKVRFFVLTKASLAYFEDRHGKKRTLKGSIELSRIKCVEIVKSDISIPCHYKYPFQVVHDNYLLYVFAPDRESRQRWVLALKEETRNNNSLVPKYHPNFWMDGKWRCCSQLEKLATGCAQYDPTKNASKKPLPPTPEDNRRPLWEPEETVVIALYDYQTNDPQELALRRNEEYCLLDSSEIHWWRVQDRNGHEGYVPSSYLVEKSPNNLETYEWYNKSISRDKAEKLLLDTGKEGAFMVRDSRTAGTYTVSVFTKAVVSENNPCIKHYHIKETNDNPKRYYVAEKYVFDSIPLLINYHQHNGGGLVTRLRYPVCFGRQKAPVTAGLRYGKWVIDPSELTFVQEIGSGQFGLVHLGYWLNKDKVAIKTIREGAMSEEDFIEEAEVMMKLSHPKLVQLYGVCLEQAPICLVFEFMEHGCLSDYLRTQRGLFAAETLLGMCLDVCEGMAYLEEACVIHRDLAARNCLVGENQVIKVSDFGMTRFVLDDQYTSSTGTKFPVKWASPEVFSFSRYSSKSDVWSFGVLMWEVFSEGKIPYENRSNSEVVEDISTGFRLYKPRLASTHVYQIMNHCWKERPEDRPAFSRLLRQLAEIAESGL

[9] = target: T3, panel of 255 wild-type kinases (Homo sapiens, UniProt Q16566); details: CaMK4 kinase assay; 1 µmol/L single concentration; read-out: %-inhibition CaMK4
T3 sequence (Q16566 1-473): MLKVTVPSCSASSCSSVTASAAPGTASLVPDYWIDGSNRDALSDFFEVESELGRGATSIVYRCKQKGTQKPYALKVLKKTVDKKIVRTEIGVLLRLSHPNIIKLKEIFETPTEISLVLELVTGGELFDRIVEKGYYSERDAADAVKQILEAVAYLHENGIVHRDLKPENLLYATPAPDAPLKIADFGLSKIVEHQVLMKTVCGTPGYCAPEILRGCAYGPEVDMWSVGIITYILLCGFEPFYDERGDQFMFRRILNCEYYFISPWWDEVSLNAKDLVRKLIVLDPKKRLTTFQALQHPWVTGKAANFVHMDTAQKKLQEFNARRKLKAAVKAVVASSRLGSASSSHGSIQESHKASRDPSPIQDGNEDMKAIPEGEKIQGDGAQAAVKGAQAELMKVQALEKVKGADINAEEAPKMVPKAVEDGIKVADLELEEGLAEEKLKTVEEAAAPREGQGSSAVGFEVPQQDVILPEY

CO[C@]1(C(=O)N[C@@H](C)c2ccc(-n3cc(F)cn3)nc2)CC[C@H](c2nc(C)cc(Nc3cc(C)[nH]n3)n2)CC1 [pralsetinib] gave an inhibition at 1 µM [1] of 3%, an inhibition at 1 µM [2] of 37% and an inhibition at 1 µM [3] of 94%. For the same compound, the inhibition at 1 µM [4] was 98%, the inhibition at 1 µM [5] was -3% and the inhibition at 1 µM [6] was 1.69%. The inhibition at 1 µM [7] was -2.72%, the inhibition at 1 µM [8] was 59% and the inhibition at 1 µM [9] was 0.271%.
CCn1c(=O)c(-c2cc(NC(=O)Nc3ccccc3)c(F)cc2Br)cc2cnc(NC)cc21 [ripretinib] showed an inhibition at 1 µM [1] of 15%, an inhibition at 1 µM [2] of 18% and an inhibition at 1 µM [3] of 71%. The inhibition at 1 µM [4] was 72%, the inhibition at 1 µM [5] was 1.8% and the inhibition at 1 µM [6] was 66%. For the same compound, the inhibition at 1 µM [7] was -2.82%, the inhibition at 1 µM [8] was 1.24% and the inhibition at 1 µM [9] was 1.71%.
COc1ccc(CN2C3CC2CN(c2ccc(-c4cc(OCC(C)(C)O)cn5ncc(C#N)c45)cn2)C3)cn1 [selpercatinib] showed an inhibition at 1 µM [1] of 12%, an inhibition at 1 µM [2] of 16% and an inhibition at 1 µM [3] of 79%. For the same compound, the inhibition at 1 µM [4] was 100%, the inhibition at 1 µM [5] was 2.36% and the inhibition at 1 µM [6] was 9%. The inhibition at 1 µM [7] was -0.197%, the inhibition at 1 µM [8] was 79% and the inhibition at 1 µM [9] was -2.54%.
Cn1cnc2c(F)c(Nc3ccc(Br)cc3Cl)c(C(=O)NOCCO)cc21 [selumetinib] was tested, and the inhibition at 1 µM [1] was 0.359%, the inhibition at 1 µM [2] was -6.58% and the inhibition at 1 µM [3] was 8.51%. For the same compound, the inhibition at 1 µM [4] was 1.1%, the inhibition at 1 µM [5] was -0.361% and the inhibition at 1 µM [6] was -3%. It also gave an inhibition at 1 µM [7] of -2.61%, an inhibition at 1 µM [8] of 4.28% and an inhibition at 1 µM [9] of -2%.
Cc1cc(Nc2ncnc3ccc(NC4=NC(C)(C)CO4)cc23)ccc1Oc1ccn2ncnc2c1 [tucatinib] gave an inhibition at 1 µM [1] of 39%, an inhibition at 1 µM [2] of -3% and an inhibition at 1 µM [3] of 12%. For the same compound, the inhibition at 1 µM [4] was 6%, the inhibition at 1 µM [5] was 0.505% and the inhibition at 1 µM [6] was 0.717%. For the same compound, the inhibition at 1 µM [7] was -0.581%, the inhibition at 1 µM [8] was 1.31% and the inhibition at 1 µM [9] was 0.435%.
In the case of C=CC(=O)N1CCC([C@@H]2CCNc3c(C(N)=O)c(-c4ccc(Oc5ccccc5)cc4)nn32)CC1 [zanubrutinib], the inhibition at 1 µM [1] is reported as 13%, the inhibition at 1 µM [2] is reported as -4.52% and the inhibition at 1 µM [3] is reported as -7%. The inhibition at 1 µM [4] was 2.54%, the inhibition at 1 µM [5] was 4.32% and the inhibition at 1 µM [6] was -2%. For the same compound, the inhibition at 1 µM [7] was -2.35%, the inhibition at 1 µM [8] was 34% and the inhibition at 1 µM [9] was 0.733%.
